Measured values: patent publication US7074596B2, “Synthesis and use of anti-reverse mRNA cap analogues” (Board of Supervisors of Louisiana State University And …, priority 2002, dated 2006)

Experiments:
[1] = tested on: RRL (rabbit reticulocyte lysate) system; assay: Translation of capped luciferase mRNAs in the RRL system (luciferase activity); assay type: biochemical; conditions: translated 60 min in RRL, slope of luciferase activity versus mRNA concentration, FIG. 4
Description: Two lengths of RNA, either uncapped or capped with one of the cap analogues, were synthesized by in vitro transcription. The DNA template used for both lengths of RNA was pSP−luc+ (Promega), which contains an SP6 bacteriophage promoter and a sequence encoding luciferase. To generate the short RNAs (43 bases exclusive of the cap), the plasmid was digested with Ncol. To generate the long RNAs (1706 bases, containing the entire luciferase coding region), the plasmid was digested with EcoRl. […]
A micrococcal nuclease-treated RRL (rabbit reticulocyte lysate) system was used for in vitro translation as described in A. Cai et al., “Quantitative assessment of mRNA cap analogs as inhibitors of in vitro translation,” Biochemistry, vol.38, pp. 8538–8547 (1999). In some cases, the mRNA used in this system was natural rabbit globin mRNA, and protein synthesis was measured by incorporation of [^3H]Leu into a trichloroacetic acid-precipitable form. […]
FIG. 4 depicts the translational activity of the ARCA-capped mRNAs. […] The RNAs were translated for 60 min in the RRL system, and luciferase activity was measured in triplicate by luminometry (RLU, relative light units). […]

[2] = target: T1, SP6 polymerase (Enterobacteria phage SP6, UniProt P06221); assay: Analysis of cap orientation in in vitro-synthesized RNA transcripts by RNase T2 + TAP digestion and anion exchange HPLC; assay type: biochemical, bacteriophage SP6; conditions: for Orientation of incorporation into RNA (in words): RNase T2 and TAP digestion, HPLC, FIG. 2; for Product observed RNase T2 + TAP: 7-methylated pGp* product (reverse orientation of the cap) / Product observed RNase T2 + TAP: pGp* (normal orientation of the cap): short RNA (43 bases) from Ncol-digested pSP-luc+, [α-32P]ATP, share of 5′ end labeled digestion product
T1 construct: purchased Promega
T1 sequence (P06221 1-874): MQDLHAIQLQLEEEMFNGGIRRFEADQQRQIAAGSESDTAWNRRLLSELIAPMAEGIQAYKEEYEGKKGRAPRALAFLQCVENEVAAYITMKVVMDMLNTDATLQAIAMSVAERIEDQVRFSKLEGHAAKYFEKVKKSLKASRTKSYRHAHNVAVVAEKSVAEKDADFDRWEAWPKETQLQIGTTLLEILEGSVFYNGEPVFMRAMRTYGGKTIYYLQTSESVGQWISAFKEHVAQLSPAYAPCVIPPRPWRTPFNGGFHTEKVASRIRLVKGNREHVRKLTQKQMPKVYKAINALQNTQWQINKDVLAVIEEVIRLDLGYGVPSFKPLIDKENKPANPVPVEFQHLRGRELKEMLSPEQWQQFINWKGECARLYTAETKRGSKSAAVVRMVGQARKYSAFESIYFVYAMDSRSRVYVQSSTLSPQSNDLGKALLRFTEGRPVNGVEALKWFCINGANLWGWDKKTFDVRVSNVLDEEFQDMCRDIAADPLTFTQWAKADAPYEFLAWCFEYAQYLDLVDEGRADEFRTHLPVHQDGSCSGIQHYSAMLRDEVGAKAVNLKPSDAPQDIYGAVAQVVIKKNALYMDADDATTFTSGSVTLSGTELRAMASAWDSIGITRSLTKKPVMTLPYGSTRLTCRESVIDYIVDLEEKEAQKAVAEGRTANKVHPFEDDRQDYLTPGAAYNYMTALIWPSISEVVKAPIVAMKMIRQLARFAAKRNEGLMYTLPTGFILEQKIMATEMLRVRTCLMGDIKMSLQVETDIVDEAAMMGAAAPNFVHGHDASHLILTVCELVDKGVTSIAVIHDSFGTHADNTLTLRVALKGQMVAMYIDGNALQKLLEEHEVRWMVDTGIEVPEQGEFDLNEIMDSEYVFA
Method: Mono- and dinucleotides obtained by enzymatic digestion of in vitro-synthesized RNAs were analyzed by HPLC using a Waters 625 instrument with a 996 PDA detector on a 4.5×250 mm Partisil 10SAX/25 column (Whatman). The program for elution of nucleotides comprised water for the first 5 min; a linear gradient of […]; a linear gradient of 87.5 to 500 mM of KH2PO4 over 30 min; and isocratic elution at 500 mM KH2PO4 for 21 min—all at a flow rate of 1 mL/min.
Two lengths of RNA, either uncapped or capped with one of the cap analogues, were synthesized by in vitro transcription. The DNA template used for both lengths of RNA was pSP−luc+ (Promega), which contains an SP6 bacteriophage promoter and a sequence encoding luciferase. To generate the short RNAs (43 bases exclusive of the cap), the plasmid was digested with Ncol. To generate the long RNAs (1706 bases, containing the entire luciferase coding region), the plasmid was digested with EcoRl. A typical 20 μL in vitro transcription reaction contained 40 mM Tris-HCl, pH 7.9, 6 mM MgCl2, 2 mM spermidine, 10 mM DTT, 2 μg BSA, 20 units of RNasin (Promega), 0.5 mM ATP, 0.5 mM CTP, 0.5 mM UTP, 0.1 mM GTP, 1 mM cap analogue (GpppG, m7GpppG, m^73′dGpppG, or m2^7,O3′GpppG), 0.2–1.0 μg DNA, and 20 units of SP6 polymerase (Promega). Reactions to synthesize the short RNAs also contained 28 μCi of [α-^32P]ATP (ICN), and those to synthesize the long RNAs contained 0.8 μCi of [α-^32P]CTP (ICN). Reaction mixtures were incubated for 60 min at 37° C., extracted with phenol and chloroform, and the solution was made 2 M in sodium acetate. The nucleic acids were then precipitated with 3 volumes of ethanol on dry ice for 5 min, and the mixture was centrifuged at 14,000 rpm for 30 min. The resulting pellet was dissolved in water, and the solution was made 0.2 M in sodium acetate. The nucleic acid was precipitated with 2.5 volumes of ethanol at 4° C. for 30 min, and the mixture was centrifuged at 14,000 rpm for 30 min. The pellet was allowed to air-dry and then dissolved in diethylpyrocarbonate-treated water.
The short RNAs were digested with 67 U RNase T2 (Life Technologies) in 15 μL of 0.14 M sodium acetate, pH 4.6, at 37° C. for 60 min. In some cases, the RNAs were subjected to a two-step digestion instead. The first digestion was with 10 U TAP (tobacco acid pyrophosphatase) (Epicentre Technologies) in 5 μL of 50 mM sodium acetate, pH 6.0, 1 mM EDTA, 0.1% β-mercaptoethanol, and 0.01% Triton X-100 at 37° C. for 60 min. The digestion was continued for 60 min at 37° C. with 67 U RNase T2 in a final volume of 16 μL of 0.12 M sodium acetate, pH 4.6. Samples were analyzed without further treatment by anion exchange HPLC as described above.
The structure of the ARCAs was designed to prevent incorporation into RNA in the reverse orientation. […] To obtain a higher proportion of radioactivity in the cap versus the internal positions, a shorter DNA template was produced by cleaving pSP−luc+ with Ncol instead of EcoRl. This digestion was expected to yield an RNA product of 43 bases (plus the cap).
RNase T2 digests RNA with no base specificity. Thus, it was expected to generate primarily 3′-NMPs from this RNA. Those nucleotide residues that were located 5′ to an A residue would acquire a ^32P-labeled 3′-phosphate by nearest-neighbor transfer. The pyrophosphate bonds in the cap, however, are not susceptible to RNase T2. Since the first nucleotide residue after the cap in the synthetic RNA is an A, the α-phosphate of [α-^32P]ATP would be transferred to the cap following RNase T2 digestion.

[3] = target: T2, elF4E (Oryctolagus cuniculus, UniProt P29338); assay: Competitive inhibition of cell-free translation of globin mRNA in the RRL system; assay type: biochemical, rabbit; conditions: FIG. 3
T2 construct: A micrococcal nuclease-treated RRL (rabbit reticulocyte lysate) system was used for in vitro translation; from tissue; host or cells: rabbit reticulocyte lysate, micrococcal nuclease-treated
T2 sequence (P29338 whole entry): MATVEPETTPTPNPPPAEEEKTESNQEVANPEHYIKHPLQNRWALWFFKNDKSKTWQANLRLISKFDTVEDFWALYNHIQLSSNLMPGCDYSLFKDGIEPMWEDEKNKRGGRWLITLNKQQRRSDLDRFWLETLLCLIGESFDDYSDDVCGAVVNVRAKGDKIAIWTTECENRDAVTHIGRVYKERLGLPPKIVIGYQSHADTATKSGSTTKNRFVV
Method: The ability of cap analogues to inhibit cell-free translation in the RRL system programmed with globin mRNA was measured as described in Cai et al. (1999). Data were fit by least squares minimization to a theoretical rate equation.
We separately tested GpppG, m^7GpppG, and the two ARCAs for their ability to compete with natural globin mRNA for recognition by the translational machinery, and thereby to inhibit translation in an RRL system. […] Natural rabbit globin mRNA was translated at 5 μg/mL in the RRL system, and globin synthesis was detected by incorporation of [^3H]Leu into protein.

SMILES: CO[C@H]1[C@@H](O)[C@H](n2c[n+](C)c3c(=O)[nH]c(N)nc32)O[C@@H]1COP(=O)(O)OP(=O)(O)OP(=O)(O)OC[C@H]1O[C@@H](n2cnc3c(=O)[nH]c(N)nc32)[C@H](O)[C@@H]1O [m2^7,O3′GpppG, P^1-3′-O, 7-Dimethylguanosine-5′P^3-guanosine-5′triphosphate]
- Translational efficiency of capped luciferase mRNA (in words) [1]: more efficient in translation than m^7GpppG-capped mRNA
- Orientation of incorporation into RNA (in words) [2]: incorporated in only one orientation
- Product observed RNase T2 + TAP: 7-methylated pGp* product (reverse orientation of the cap) [2]: 0%
- Product observed RNase T2 + TAP: pGp* (normal orientation of the cap) [2]: 100%

SMILES: Cn1c[n+](C2OC(COP(=O)(O)OP(=O)(O)OP(=O)(O)OCC3OC(n4cnc5c(=O)[nH]c(N)nc54)C(O)C3O)C(O)C2O)c2nc(N)nc([O-])c21 (centres unmarked) [m^7GpppG, m^7G(5′)ppp(5′)G, reference compound]
- Extent of reverse capping ([2]; experiments of FIG. 2 and Table 3): approximately 33%
- Product observed RNase T2 + TAP: 7-methylated pGp* product (reverse orientation of the cap) [2]: 33%
- Product observed RNase T2 + TAP: pGp* (normal orientation of the cap) [2]: 67%
- Ki ([3]; natural rabbit globin mRNA 5 μg/mL, [3H]Leu incorporation, least-squares fit of translation data, read-out: Kl, dissociation constant for the cap analogue•elF4E complex): 27.8 ± 12.6 µM

SMILES: Nc1nc2c(ncn2[C@@H]2O[C@H](COP(=O)(O)OP(=O)(O)OP(=O)(O)OC[C@H]3O[C@@H](n4cnc5c(=O)[nH]c(N)nc54)[C@H](O)[C@@H]3O)[C@@H](O)[C@H]2O)c(=O)[nH]1 [GpppG, reference compound]
- Product observed RNase T2 + TAP: pGp* (normal orientation of the cap) [2]: 100%
- Inhibition of translation (in words) ([3]; natural rabbit globin mRNA in RRL system): did not act as an inhibitor

SMILES: C[n+]1cn([C@@H]2O[C@H](COP(=O)(O)OP(=O)(O)OP(=O)(O)OC[C@H]3O[C@@H](n4cnc5c(=O)[nH]c(N)nc54)[C@H](O)[C@@H]3O)C[C@H]2O)c2nc(N)[nH]c(=O)c21 [m^73′dGpppG, P^1-3′-Deoxy-7-methylguanosine-5′ P^3-guanosine-5′triphosphate]
- Translational efficiency of capped luciferase mRNA (in words) [1]: more efficient in translation than m^7GpppG-capped mRNA
- Orientation of incorporation into RNA (in words) [2]: incorporated in only a single orientation
- Product observed RNase T2 + TAP: 7-methylated pGp* product (reverse orientation of the cap) [2]: 0%
- Product observed RNase T2 + TAP: pGp* (normal orientation of the cap) [2]: 100%
